Measurements from paper PMC6385020 (Molecules, 2019).

Assays:
[1] = tested on: F-myc-T (DNA, G4) TGAGGGTGGGTAGGGTGGGTAA; experiment: FRET-melting; settings: 1 mM KCl, 99 mM LiCl; 10 mM lithium cacodylate pH 7.3; 1 µM compound, 0.2 µM DNA
[2] = tested on: F-21CTA-T (DNA, G4) AGGGCTAGGGCTAGGGCTAGGG; experiment: FRET-melting; settings: 1 mM KCl, 99 mM LiCl; 10 mM lithium cacodylate pH 7.3; 1 µM compound, 0.2 µM DNA
[3] = tested on: F-CEB25-WT-T (DNA, G4) AGGGTGGGTGTAAGTGTGGGTGGGT; experiment: FRET-melting; settings: 1 mM KCl, 99 mM LiCl; 10 mM lithium cacodylate pH 7.3; 1 µM compound, 0.2 µM DNA
[4] = tested on: c-myc* (DNA, G4) TGAGGGTGGGTAGGGTGGGTAA; experiment: denaturing gel electrophoresis, 3'-exonuclease digestion; settings: 100 mM KCl or KClO4; covalent; platination mainly A21/A22, also A12/G13; 18 h, 32 °C, 10 µM DNA
[5] = tested on: 22AG (DNA, G4) AGGGTTAGGGTTAGGGTTAGGG; experiment: G4-FID, TO-PRO-3 displacement; settings: 100 mM KCl; 10 mM lithium cacodylate pH 7.3, 1% DMSO; TO-PRO-3 displaced; 1 µM compound, 0.25 µM DNA
[6] = tested on: c-myc (myc22) (DNA, G4) TGAGGGTGGGTAGGGTGGGTAA; experiment: G4-FID, TO-PRO-3 displacement; settings: 100 mM KCl; 10 mM lithium cacodylate pH 7.3, 1% DMSO; TO-PRO-3 displaced; 1 µM compound, 0.25 µM DNA
[7] = tested on: 21CTA (DNA, G4) AGGGCTAGGGCTAGGGCTAGGG; experiment: G4-FID, TO-PRO-3 displacement; settings: 100 mM KCl; 10 mM lithium cacodylate pH 7.3, 1% DMSO; TO-PRO-3 displaced; 1 µM compound, 0.25 µM DNA

| SMILES | ΔTm [1] [°C] | ΔTm [2] [°C] | ΔTm [3] [°C] | binding [4] | % TO-PRO-3 displacement [5] | % TO-PRO-3 displacement [6] | % TO-PRO-3 displacement [7] |
| --- | --- | --- | --- | --- | --- | --- | --- |
| Cc1ccc(-c2cc(-c3ccccn3)nc(-c3ccccn3)c2)cc1.[Cl-].[Cl][Pt+] [Pt-ttpy] | > 10 | > 10 | > 10 | yes |  |  |  |
| CN(C)c1ccc(/C=C/c2cc(-c3ccccn3)nc(-c3ccccn3)n2)cc1.[Cl-].[Cl][Pt+] [Pt-vpym, Chloro-(E)-4-(2-(2,6-di(pyridin-2-yl)pyrimidin-4-yl)vinyl)-N,N-dimethylaniline-platinum(II) Chloride] |  |  |  |  | ~ 30% | ~ 30% | ~ 30% |
